We go through two compounds from patent publication US20230080670A1, “METHODS AND COMPOSITIONS FOR TREATING TUMORS USING TRANSCRIPTION INHIBITION AND DNA DAMAGE” (ARIZONA BOARD OF REGENTS ON BEHALF OF THE UNIVERSITY OF …, priority 2019, published 2023).

One data set has as its system A673 cells. As to the kind of experiment: MTT cell survival assay, A673 Ewing's sarcoma cell line. The following applies: 96 hours. In kind it is cell-based.
Data set [1] deals with gammaH2Ax. As to the kind of experiment: Western blot of gammaH2Ax DNA damage response, A673 cells. The class given is cell-based.
The test system of data set [2] is gammaH2Ax. As to the kind of experiment: Western blot of gammaH2Ax DNA damage response, HEK293 cells. The class given is cell-based. The following applies: flavopiridol added to SN38, 24 hours. The protocol:
All doses shown are in nanomolar, nM.
Western blot analysis: Protein lysates concentrations were quantified using BCA Protein Assay (Pierce). 5-10 ug of protein sample was loaded onto 7.5% SDS-PAGE gels. Standard western blot protocols were followed. Blots were transferred at 500 mA, blocked in 5% nonfat dried milk in TBS-T, and incubated overnight with primary antibody at 4° C. Blots were washed in TBS-T, incubated in secondary antibody for 1 hour at room temperature, washed again in TBS-T, and imaged after the addition of SuperSignal™ West Pico PLUS Chemiluminescent substrate (Thermo Scientific). Western blots were imaged on the ChemiDoc.

The next data set concerns patients. The following applies: therapeutic doses; cited from earlier work.

SMILES strings stand for the structures. “Also recorded” adds a separate entry of the source.

Turning to `CCc1c2c(nc3ccc(O)cc13)-c1cc3c(c(=O)n1C2)COC(=O)[C@]3(O)CC` [SN38], the “toxicity (cell survival, MTT assay)” value with A673 cells (1.3 nM SN38 alone) is “No toxicity”. Also, the “gammaH2Ax DNA damage response” value in the data set with gammaH2Ax [1] (SN38 for 24 hours without transcription inhibitor, Ewing's sarcoma cell line) is on record as “standard DNA damage response”.

As for `CN1CC[C@H](c2c(O)cc(O)c3c(=O)cc(-c4ccccc4Cl)oc23)[C@H](O)C1` [flavopiridol], in the data set on A673 cells (100 nM flavopiridol alone), the “toxicity (cell survival, MTT assay)” value is listed as “No toxicity”. The “inhibition of the gamma H2Ax response to DNA damage (quantification of western blots)” value with gammaH2Ax [1] (A673 cells, 10 nM, 50 nM and 100 nM flavopiridol) is on record as “dose-dependent inhibition”. Also, in the data set with gammaH2Ax [1] (transcription inhibitor added to SN38, 24 hours, Ewing's sarcoma cell line), the “effect on phosphorylation of histone to gammaH2Ax (DNA damage response)” value is reported as “prevented this event”. For the same compound, in the data set on gammaH2Ax [2], the “effect on gammaH2Ax response to DNA damage” value is “does not prevent the normal cellular response to DNA damage; also recorded: had no such effect”. In addition, in the data set with patients, the toxicity in patients result is recorded as “significant toxicity”.
